# Calls of active or inactive are those of the source. The rule behind the calls is not given here.
# How the values were obtained:
# CAL-27 [1] = assay: Induction of apoptosis in human CAL-27 cells assessed as increase in cleaved-PARP level at 1 uM after 24 hrs by Immunoblot analysis relative to control; format: functional
# CAL-27 [2] = assay: Induction of apoptosis in human CAL-27 cells assessed as increase in cleaved-PARP level at 10 uM after 24 hrs by Immunoblot analysis relative to control; format: functional
# CAL-27 [3] = assay: Antiproliferative activity against human CAL-27 cells assessed as reduction in cell viability at 10 uM measured after 72 hrs by Celltiter-Glo luminescent assay; format: functional
# FaDu = assay: Antiproliferative activity against human FaDu cells assessed as reduction in cell viability at 10 uM measured after 72 hrs by Celltiter-Glo luminescent assay; format: functional
# HEK-293T = assay: Antiproliferative activity against human HEK293T cells assessed as reduction in cell viability at 10 uM measured after 72 hrs by Celltiter-Glo luminescent assay; format: toxicity, cell-based
# CAL-27 [4] = assay: Induction of apoptosis in human CAL-27 cells assessed as PARP level at 1 uM after 24 hrs by Immunoblot analysis relative to control; format: functional
# CAL-27 [5] = assay: Induction of apoptosis in human CAL-27 cells assessed as PARP level at 10 uM after 24 hrs by Immunoblot analysis relative to control; format: functional
# CAL-27 [6] = assay: Induction of apoptosis in human CAL-27 cells assessed as BCL-xL level at 1 uM after 24 hrs by Immunoblot analysis relative to control; format: functional
# CAL-27 [7] = assay: Induction of apoptosis in human CAL-27 cells assessed as BCL-xL level at 10 uM after 24 hrs by Immunoblot analysis relative to control; format: functional
# CAL-27 [8] = assay: Induction of apoptosis in human CAL-27 cells assessed as decrease in AKT phosphorylation at S473 residue at 0.5 uM after 24 hrs by Immunoblot analysis relative to control; format: functional; set-up: scale not given: the % may be the effect or the level left
# CAL-27 [9] = assay: Induction of apoptosis in human CAL-27 cells assessed as decrease in AKT phosphorylation at S473 residue at 1 uM after 24 hrs by Immunoblot analysis relative to control; format: functional; set-up: scale not given: the % may be the effect or the level left
# CAL-27 [10] = assay: Induction of apoptosis in human CAL-27 cells assessed as decrease in AKT phosphorylation at S473 residue at 5 uM after 24 hrs by Immunoblot analysis relative to control; format: functional; set-up: scale not given: the % may be the effect or the level left
# CAL-27 [11] = assay: Induction of apoptosis in human CAL-27 cells assessed as decrease in AKT phosphorylation at S473 residue at 10 uM after 24 hrs by Immunoblot analysis relative to control; format: functional; set-up: scale not given: the % may be the effect or the level left
# CAL-27 [12] = assay: Induction of apoptosis in human CAL-27 cells assessed as decrease in FOXO3A phosphorylation at serine 253 residue at 0.5 uM after 24 hrs by Immunoblot analysis relative to control; format: functional; set-up: scale not given: the % may be the effect or the level left
# CAL-27 [13] = assay: Induction of apoptosis in human CAL-27 cells assessed as decrease in FOXO3A phosphorylation at serine 253 residue at 1 uM after 24 hrs by Immunoblot analysis relative to control; format: functional; set-up: scale not given: the % may be the effect or the level left
# CAL-27 [14] = assay: Induction of apoptosis in human CAL-27 cells assessed as decrease in FOXO3A phosphorylation at serine 253 residue at 5 uM after 24 hrs by Immunoblot analysis relative to control; format: functional; set-up: scale not given: the % may be the effect or the level left
# CAL-27 [15] = assay: Induction of apoptosis in human CAL-27 cells assessed as decrease in FOXO3A phosphorylation at serine 253 residue at 10 uM after 24 hrs by Immunoblot analysis relative to control; format: functional; set-up: scale not given: the % may be the effect or the level left
# [16] = molecular target: Serine/threonine-protein kinase ATR (Homo sapiens) (UniProt Q13535); assay: Inhibition of ATR (unknown origin) in human CAL-27 cells measured after 6 hrs by select screen kinase assay; format: cell-based
# [17] = molecular target: Receptor-type tyrosine-protein kinase FLT3 (Homo sapiens, UniProt P36888); assay: Inhibition of FLT3 (unknown origin) at 1 uM by kinome scan method
# Sequence of Receptor-type tyrosine-protein kinase FLT3 (P36888 whole entry): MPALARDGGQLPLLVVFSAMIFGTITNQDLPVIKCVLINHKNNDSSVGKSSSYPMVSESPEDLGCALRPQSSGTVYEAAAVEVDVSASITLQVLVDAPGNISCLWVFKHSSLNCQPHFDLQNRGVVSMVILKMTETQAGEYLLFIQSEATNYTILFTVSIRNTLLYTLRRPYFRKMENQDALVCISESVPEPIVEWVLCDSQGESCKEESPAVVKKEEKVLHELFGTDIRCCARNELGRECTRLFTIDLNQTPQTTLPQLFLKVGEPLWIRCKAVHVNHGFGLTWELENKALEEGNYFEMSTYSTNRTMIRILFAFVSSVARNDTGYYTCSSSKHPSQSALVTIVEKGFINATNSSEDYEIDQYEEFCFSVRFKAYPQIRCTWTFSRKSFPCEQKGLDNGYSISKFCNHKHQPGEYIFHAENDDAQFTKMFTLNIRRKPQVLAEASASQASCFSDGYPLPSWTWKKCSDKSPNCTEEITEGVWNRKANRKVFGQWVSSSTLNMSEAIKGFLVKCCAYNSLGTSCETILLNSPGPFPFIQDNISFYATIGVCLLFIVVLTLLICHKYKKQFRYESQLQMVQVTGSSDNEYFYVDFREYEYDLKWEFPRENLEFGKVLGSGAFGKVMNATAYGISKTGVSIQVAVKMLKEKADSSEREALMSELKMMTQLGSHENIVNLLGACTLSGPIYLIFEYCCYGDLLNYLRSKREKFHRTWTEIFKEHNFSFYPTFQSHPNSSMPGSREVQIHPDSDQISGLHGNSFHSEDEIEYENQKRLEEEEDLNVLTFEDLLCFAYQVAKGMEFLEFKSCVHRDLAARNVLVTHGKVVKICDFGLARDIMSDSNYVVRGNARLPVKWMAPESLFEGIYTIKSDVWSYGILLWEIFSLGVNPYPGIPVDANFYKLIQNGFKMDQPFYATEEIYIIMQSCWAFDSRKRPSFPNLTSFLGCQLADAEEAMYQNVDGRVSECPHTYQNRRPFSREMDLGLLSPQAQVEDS
# [18] = molecular target: Myosin light chain kinase, smooth muscle (Homo sapiens, UniProt Q15746); assay: Inhibition of MYLK (unknown origin) at 1 uM by kinome scan method
# [19] = Half life in C57BL/6 mouse at 5 mg/kg, iv measured upto 8 hrs by LC-MS/MS analysis; format: ADME, organism-based; conditions: in vivo
# [20] = Half life in C57BL/6 mouse at 10 mg/kg, po measured upto 8 hrs by LC-MS/MS analysis; format: ADME, organism-based; conditions: in vivo
# [21] = AUC (0-infinity) in C57BL/6 mouse at 5 mg/kg, iv measured upto 8 hrs by LC-MS/MS analysis; format: ADME, organism-based; set-up: route intravenous, dose 5 mg/kg, time <=8; conditions: in vivo
# [22] = AUC (0-infinity) in C57BL/6 mouse at 10 mg/kg, po measured upto 8 hrs by LC-MS/MS analysis; format: ADME, organism-based; set-up: route oral, dose 10 mg/kg, time <=8; conditions: in vivo
# [23] = Clearance in C57BL/6 mouse at 5 mg/kg, iv measured upto 8 hrs by LC-MS/MS analysis; format: ADME, organism-based; conditions: in vivo
# [24] = Cmax in C57BL/6 mouse at 10 mg/kg, po measured upto 8 hrs by LC-MS/MS analysis; format: ADME, organism-based; set-up: route oral, dose 10 mg/kg, time <=8; conditions: in vivo
# [25] = Oral bioavailability in C57BL/6 mouse at 10 mg/kg measured upto 8 hrs by LC-MS/MS analysis; format: ADME, organism-based; conditions: in vivo
# [26] = molecular target: Serine/threonine-protein kinase Sgk1 (Homo sapiens, UniProt O00141); assay: Inhibition of SGK (unknown origin) at 1 uM by kinome scan method
# [27] = molecular target: Dual specificity mitogen-activated protein kinase kinase 4 (Homo sapiens, UniProt P45985); assay: Inhibition of MEK4 (unknown origin) at 1 uM by kinome scan method
# [28] = molecular target: Mitogen-activated protein kinase kinase kinase 19 (Homo sapiens, UniProt Q56UN5); assay: Inhibition of YSK4 (unknown origin) at 1 uM by kinome scan method
# [29] = molecular target: Ribosomal protein S6 kinase alpha-6 (Homo sapiens, UniProt Q9UK32); assay: Inhibition of RSK4 (unknown origin) at 1 uM by kinome scan method
# Focal adhesion kinase 1 [30] = molecular target: T1, Focal adhesion kinase 1 (Homo sapiens, UniProt Q05397); assay: Inhibition of FAK (unknown origin) at 1 uM by kinome scan method
# T1 sequence (Q05397 whole entry): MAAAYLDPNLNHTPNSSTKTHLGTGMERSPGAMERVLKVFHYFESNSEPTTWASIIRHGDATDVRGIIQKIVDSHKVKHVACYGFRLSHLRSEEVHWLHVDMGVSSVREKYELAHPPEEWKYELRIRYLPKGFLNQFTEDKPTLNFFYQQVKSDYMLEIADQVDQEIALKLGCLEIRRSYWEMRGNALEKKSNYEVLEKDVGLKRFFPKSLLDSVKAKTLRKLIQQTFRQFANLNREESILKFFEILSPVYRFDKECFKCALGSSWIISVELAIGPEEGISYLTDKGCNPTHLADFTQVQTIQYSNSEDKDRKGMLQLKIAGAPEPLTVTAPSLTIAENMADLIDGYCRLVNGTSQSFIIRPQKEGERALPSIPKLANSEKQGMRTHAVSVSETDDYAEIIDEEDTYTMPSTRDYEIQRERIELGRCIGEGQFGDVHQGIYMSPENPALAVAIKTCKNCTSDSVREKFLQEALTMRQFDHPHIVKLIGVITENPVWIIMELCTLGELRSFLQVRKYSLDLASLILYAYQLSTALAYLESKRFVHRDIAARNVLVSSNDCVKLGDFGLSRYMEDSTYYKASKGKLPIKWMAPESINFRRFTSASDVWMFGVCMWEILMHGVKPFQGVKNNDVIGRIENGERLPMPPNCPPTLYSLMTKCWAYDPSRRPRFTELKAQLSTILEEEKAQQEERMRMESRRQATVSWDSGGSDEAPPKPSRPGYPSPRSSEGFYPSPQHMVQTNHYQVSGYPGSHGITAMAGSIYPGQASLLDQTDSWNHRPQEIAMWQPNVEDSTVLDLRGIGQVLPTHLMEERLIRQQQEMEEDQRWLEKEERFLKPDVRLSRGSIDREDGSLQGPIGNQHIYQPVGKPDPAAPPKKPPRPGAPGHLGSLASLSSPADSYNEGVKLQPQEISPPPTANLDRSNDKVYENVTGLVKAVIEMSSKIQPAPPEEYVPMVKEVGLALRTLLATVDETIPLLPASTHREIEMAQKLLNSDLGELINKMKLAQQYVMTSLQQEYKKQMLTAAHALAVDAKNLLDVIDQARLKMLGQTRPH
# [31] = molecular target: T2, Ribosomal protein S6 kinase alpha-3 (Homo sapiens, UniProt P51812); assay: Inhibition of RSK2 (unknown origin) at 1 uM by kinome scan method
# T2 sequence (P51812 whole entry): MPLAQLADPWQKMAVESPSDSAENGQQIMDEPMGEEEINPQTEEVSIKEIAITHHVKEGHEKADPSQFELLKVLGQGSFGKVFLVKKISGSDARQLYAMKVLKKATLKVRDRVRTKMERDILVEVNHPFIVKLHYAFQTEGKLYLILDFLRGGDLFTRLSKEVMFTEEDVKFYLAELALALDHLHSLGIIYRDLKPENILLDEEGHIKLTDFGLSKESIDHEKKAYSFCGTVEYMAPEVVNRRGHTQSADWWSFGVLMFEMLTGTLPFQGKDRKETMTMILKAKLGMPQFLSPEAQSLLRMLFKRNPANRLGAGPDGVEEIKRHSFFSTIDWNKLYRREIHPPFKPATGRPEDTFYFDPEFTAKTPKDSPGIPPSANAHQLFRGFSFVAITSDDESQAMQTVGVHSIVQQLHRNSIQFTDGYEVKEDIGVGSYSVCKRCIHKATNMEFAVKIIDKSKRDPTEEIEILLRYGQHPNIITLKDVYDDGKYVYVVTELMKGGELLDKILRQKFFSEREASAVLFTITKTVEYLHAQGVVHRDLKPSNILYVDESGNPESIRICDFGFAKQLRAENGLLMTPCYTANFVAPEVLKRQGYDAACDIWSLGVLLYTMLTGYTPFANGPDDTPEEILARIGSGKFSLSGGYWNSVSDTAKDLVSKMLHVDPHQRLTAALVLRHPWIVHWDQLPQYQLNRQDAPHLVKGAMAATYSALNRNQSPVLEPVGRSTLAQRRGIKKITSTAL
# Misshapen-like kinase 1 = Misshapen-like kinase 1 (Homo sapiens, UniProt Q8N4C8); assay: Inhibition of MINK1 (unknown origin) at 1 uM by kinome scan method
# [32] = molecular target: Mitogen-activated protein kinase 8 (Homo sapiens, UniProt P45983); assay: Inhibition of JNK1 (unknown origin) in human CAL-27 cells measured after 6 hrs by select screen kinase assay; format: cell-based
# Sequence of Mitogen-activated protein kinase 8 (P45983 whole entry): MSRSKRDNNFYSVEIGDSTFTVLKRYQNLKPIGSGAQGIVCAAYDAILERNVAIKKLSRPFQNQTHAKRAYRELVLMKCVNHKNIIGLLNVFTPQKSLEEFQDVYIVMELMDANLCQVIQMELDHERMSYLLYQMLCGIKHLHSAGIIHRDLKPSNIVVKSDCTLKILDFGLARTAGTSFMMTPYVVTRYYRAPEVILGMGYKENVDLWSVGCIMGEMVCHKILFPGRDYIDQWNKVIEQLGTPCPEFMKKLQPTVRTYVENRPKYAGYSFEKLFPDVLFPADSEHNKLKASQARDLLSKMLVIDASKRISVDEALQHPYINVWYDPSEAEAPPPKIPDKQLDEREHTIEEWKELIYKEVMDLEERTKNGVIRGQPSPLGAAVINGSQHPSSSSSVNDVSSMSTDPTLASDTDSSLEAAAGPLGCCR
# [33] = molecular target: Mitogen-activated protein kinase 9 (Homo sapiens, UniProt P45984); assay: Inhibition of JNK2 (unknown origin) in human CAL-27 cells measured after 6 hrs by select screen kinase assay; format: cell-based
# Sequence of Mitogen-activated protein kinase 9 (P45984 whole entry): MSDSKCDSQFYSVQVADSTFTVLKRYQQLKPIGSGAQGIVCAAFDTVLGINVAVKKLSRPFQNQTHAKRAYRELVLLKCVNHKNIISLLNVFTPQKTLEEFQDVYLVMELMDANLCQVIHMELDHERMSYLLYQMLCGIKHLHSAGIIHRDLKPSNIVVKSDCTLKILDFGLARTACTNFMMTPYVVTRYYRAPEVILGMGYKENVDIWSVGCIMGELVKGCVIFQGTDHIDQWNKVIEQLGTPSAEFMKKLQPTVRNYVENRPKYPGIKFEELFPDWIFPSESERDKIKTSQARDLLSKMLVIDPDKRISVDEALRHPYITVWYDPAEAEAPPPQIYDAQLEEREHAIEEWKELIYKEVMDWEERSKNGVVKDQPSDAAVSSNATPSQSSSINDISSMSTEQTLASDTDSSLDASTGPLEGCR
# [34] = molecular target: Mitogen-activated protein kinase 10 (Homo sapiens, UniProt P53779); assay: Inhibition of JNK3 (unknown origin) in human CAL-27 cells measured after 6 hrs by select screen kinase assay; format: cell-based
# Sequence of Mitogen-activated protein kinase 10 (P53779 whole entry): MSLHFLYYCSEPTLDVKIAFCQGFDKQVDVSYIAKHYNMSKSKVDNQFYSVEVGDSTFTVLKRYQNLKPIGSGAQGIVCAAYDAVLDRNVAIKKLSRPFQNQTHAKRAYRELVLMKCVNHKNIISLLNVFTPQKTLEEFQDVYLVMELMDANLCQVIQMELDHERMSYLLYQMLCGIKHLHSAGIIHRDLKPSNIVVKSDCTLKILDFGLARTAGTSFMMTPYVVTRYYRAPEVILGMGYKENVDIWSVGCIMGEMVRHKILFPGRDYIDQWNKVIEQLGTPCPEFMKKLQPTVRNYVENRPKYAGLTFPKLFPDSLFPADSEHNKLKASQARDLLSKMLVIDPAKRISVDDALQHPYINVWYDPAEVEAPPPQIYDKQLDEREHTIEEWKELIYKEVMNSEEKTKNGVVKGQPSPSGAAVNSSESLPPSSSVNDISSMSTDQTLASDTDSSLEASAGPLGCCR
# Focal adhesion kinase 1 [35] = molecular target: T1, Focal adhesion kinase 1; assay: Inhibition of FAK (unknown origin) in human CAL-27 cells measured after 6 hrs by select screen kinase assay; format: cell-based
# [36] = molecular target: Ribosomal protein S6 kinase alpha-1 (Homo sapiens, UniProt Q15418); assay: Inhibition of RSK1 (unknown origin) in human CAL-27 cells measured after 6 hrs by select screen kinase assay; format: cell-based
# Sequence of Ribosomal protein S6 kinase alpha-1 (Q15418 whole entry): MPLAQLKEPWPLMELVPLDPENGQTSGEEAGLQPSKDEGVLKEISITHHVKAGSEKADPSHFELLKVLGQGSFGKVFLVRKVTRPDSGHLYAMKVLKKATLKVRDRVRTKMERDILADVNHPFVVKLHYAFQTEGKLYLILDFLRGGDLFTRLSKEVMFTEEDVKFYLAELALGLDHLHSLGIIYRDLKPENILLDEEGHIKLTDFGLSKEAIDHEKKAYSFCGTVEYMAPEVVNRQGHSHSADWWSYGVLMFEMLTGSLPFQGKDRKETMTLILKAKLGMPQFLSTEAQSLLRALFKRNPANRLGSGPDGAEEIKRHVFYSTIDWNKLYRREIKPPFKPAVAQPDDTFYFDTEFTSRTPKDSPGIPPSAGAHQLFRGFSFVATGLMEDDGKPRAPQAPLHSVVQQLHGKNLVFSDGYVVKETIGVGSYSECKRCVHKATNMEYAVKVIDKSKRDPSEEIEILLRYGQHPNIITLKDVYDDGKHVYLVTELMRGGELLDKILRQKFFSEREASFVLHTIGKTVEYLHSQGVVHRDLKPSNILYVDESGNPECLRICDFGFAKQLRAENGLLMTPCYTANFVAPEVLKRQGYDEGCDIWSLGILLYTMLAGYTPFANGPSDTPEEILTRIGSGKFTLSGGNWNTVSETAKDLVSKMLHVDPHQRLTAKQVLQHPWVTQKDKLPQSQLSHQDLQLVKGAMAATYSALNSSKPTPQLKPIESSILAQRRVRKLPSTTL
# [37] = molecular target: T2, Ribosomal protein S6 kinase alpha-3; assay: Inhibition of RSK2 (unknown origin) in human CAL-27 cells measured after 6 hrs by select screen kinase assay; format: cell-based
# [38] = molecular target: Ribosomal protein S6 kinase alpha-2 (Homo sapiens, UniProt Q15349); assay: Inhibition of RSK3 (unknown origin) in human CAL-27 cells measured after 6 hrs by select screen kinase assay; format: cell-based
# [39] = Half life in C57BL/6 mouse at 2 mg/kg, iv measured upto 8 hrs by LC-MS/MS analysis; format: ADME, organism-based; conditions: in vivo
# [40] = AUC (0-infinity) in C57BL/6 mouse at 2 mg/kg, iv measured upto 8 hrs by LC-MS/MS analysis; format: ADME, organism-based; set-up: route intravenous, dose 2 mg/kg, time <=8; conditions: in vivo
# [41] = Clearance in C57BL/6 mouse at 10 mg/kg, po measured upto 8 hrs by LC-MS/MS analysis; format: ADME, organism-based; conditions: in vivo
# [42] = Clearance in C57BL/6 mouse at 2 mg/kg, iv measured upto 8 hrs by LC-MS/MS analysis; format: ADME, organism-based; conditions: in vivo
# [43] = Cmax in C57BL/6 mouse at 2 mg/kg, iv measured upto 8 hrs by LC-MS/MS analysis; format: ADME, organism-based; set-up: route intravenous, dose 2 mg/kg, time <=8; conditions: in vivo
# [44] = molecular target: Dual specificity tyrosine-phosphorylation-regulated kinase 1B (Homo sapiens, UniProt Q9Y463); assay: Inhibition of DYRK1B (unknown origin) measured after 6 hrs in presence of ATP by Z'-LYTE assay
smiles,measurement,setting,value
O=C(O)c1ccc2c(c1)nc(Nc1cccc(Cl)c1)c1ccncc12 [SILMITASERTIB],Activity,CAL-27 [1],201%
same,Activity,CAL-27 [2],871%
same,Activity,CAL-27 [3],80%
same,Activity,FaDu,75%
same,Activity,HEK-293T,Active
same,Activity,CAL-27 [4],127%
same,Activity,CAL-27 [5],137%
same,Activity,CAL-27 [6],80%
same,Activity,CAL-27 [7],103%
same,Activity,CAL-27 [8],54%
same,Activity,CAL-27 [9],53%
same,Activity,CAL-27 [10],85%
same,Activity,CAL-27 [11],85%
same,Activity,CAL-27 [12],103%
same,Activity,CAL-27 [13],150%
same,Activity,CAL-27 [14],139%
same,Activity,CAL-27 [15],150%
same,inhibition,[16],Active
Cc1[nH]c2ncc3cc2c1-c1cn(nc1C(F)(F)F)CCCC(=O)N(C)Cc1nn(C)c(C#N)c1-3,Activity,CAL-27 [1],133%
same,Activity,CAL-27 [2],190%
same,Activity,CAL-27 [4],120%
same,Activity,CAL-27 [5],134%
same,Activity,CAL-27 [6],103%
same,Activity,CAL-27 [7],105%
CN1Cc2nn(C)c(C#N)c2-c2cnc3[nH]cc(c3c2)-c2cn(nc2C(F)(F)F)CCCC1=O,IC50,[17],354 nM
same,IC50,[18],334 nM
same,Activity,HEK-293T,Non-Toxic
same,half-life,[19],0.3 h
same,half-life,[20],2 h
same,AUC,[21],504.9 ng·h/mL
same,AUC,"[22]; mouse, 8 h",23.6 ng·h/mL
same,clearance,[23],167 mL/min/kg
same,Cmax,[24],11.6 µM
same,F,"[25]; mouse, 10 mg/kg, 8 h",1.1%
COc1c2c(nn1C)CN(C(C)C)C(=O)CCCn1cc(c(C(F)(F)F)n1)-c1c(C)[nH]c3ncc-2cc13,Activity,CAL-27 [1],119%
same,Activity,CAL-27 [2],145%
same,Activity,CAL-27 [4],113%
same,Activity,CAL-27 [5],117%
same,Activity,CAL-27 [6],79%
same,Activity,CAL-27 [7],61%
CN1Cc2nn(C)c(C#N)c2-c2cnc3[nH]c(F)c(c3c2)-c2cn(nc2C(F)(F)F)CCCC1=O,IC50,[26],690 nM
same,Activity,CAL-27 [1],128%
same,Activity,CAL-27 [2],540%
same,IC50,[27],132 nM
same,IC50,[28],1620 nM
same,IC50,[29],37 nM
same,IC50,Focal adhesion kinase 1 [30],210 nM
same,IC50,[31],182 nM
same,IC50,Misshapen-like kinase 1,115 nM
same,IC50,[32],1130 nM
same,IC50,[33],1100 nM
same,IC50,[34],> 10000 nM
same,IC50,Focal adhesion kinase 1 [35],90 nM
same,IC50,[36],82 nM
same,IC50,[37],80 nM
same,IC50,[38],61 nM
same,Activity,CAL-27 [3],45%
same,Activity,FaDu,40%
same,Activity,HEK-293T,Non-Toxic
same,Activity,CAL-27 [4],104%
same,Activity,CAL-27 [5],93%
same,Activity,CAL-27 [6],61%
same,Activity,CAL-27 [7],58%
same,Activity,CAL-27 [8],81%
same,Activity,CAL-27 [9],85%
same,Activity,CAL-27 [10],74%
same,Activity,CAL-27 [11],63%
same,Activity,CAL-27 [12],56%
same,Activity,CAL-27 [13],49%
same,Activity,CAL-27 [14],10%
same,Activity,CAL-27 [15],38%
same,half-life,[20],2.4 h
same,half-life,[39],1.2 h
same,AUC(0-inf),"[22]; C57BL/6, mouse",5770 ng·h/mL
same,AUC(0-inf),[40],8950 ng·h/mL
same,CL/F,[41],29.3 mL/min/kg
same,clearance,[42],5.9 mL/min/kg
same,Cmax,[24],6.4 µM
same,Cmax,[43],34.1 µM
same,bioavailability,"[25]; C57BL/6, mouse",12.3%
CN1Cc2nn(C)cc2-c2cnc3[nH]cc(c3c2)-c2cnn(c2)CCCCC1=O,IC50,[44],150 nM
